The source of these data is PubChem BioAssay (NCI).

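The compound was tested at five concentrations on cells cultured in 96-well plates, with a 48-hour exposure period. The concentration for 50% growth inhibition is given as GI50. Definition used: TGI = concentration required for complete inhibition of growth.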 A value given as a limit tells only on which side of the number the result lay.

Common to all, as to assay: NCI-60 cell line screen, 48 h
For experiment [1], the system named is A549 NSCLC.
For experiment [2], the system named is NCI-H522 lung.
In experiment [3] the test system is OVCAR-8 ovarian.
The test system of experiment [4] is TK-10 renal.
The test system of experiment [5] is UO-31 renal.
Experiment [6] concerns SF-295 CNS.
Experiment [7] concerns BT-549 breast.
Experiment [8] has as its system MCF7 breast.
Experiment [9] relates to PC-3 prostate.
In experiment [10] the test system is HS 578T breast.

Take `O=C1C2C3CC4C5C3C1C5C1(SCCS1)C42` (stereo unspecified): the TGI in [1], in experiment [2], in [3], in experiment [4] and in experiment [5] was more than 100 µM in each case.

`CC(=O)OC(C)(C)C1CC[C@]2(C)/C=C/C(C)C[C@@H](O)/C=C(\C)CC(O)C12` (stereo partly specified): the TGI in experiment [1], in experiment [3], in experiment [6], in [4] and in experiment [5] was more than 100 µM throughout.

With `O=S1OC(c2ccccc2)(c2ccccc2)C(c2ccccc2)(c2ccccc2)O1`, the TGI in experiment [1], in [2], in [3], in experiment [6], in experiment [4] and in experiment [5] was more than 100 µM each time.

Take `Cn1cc(C2NC(=O)c3ccccc3N2)c2ccccc21` (stereo unspecified): the TGI is more than 100 µM in experiment [1]; more than 100 µM in experiment [7]; 5.1 µM in experiment [8]; 2.56 µM in experiment [2]; more than 100 µM in experiment [3]; 0.408 µM in experiment [9]. In addition, the TGI in experiment [4] and in [5] was more than 100 µM throughout.

`COc1nc(NC2OC(COC(C)=O)C(OC(C)=O)C(OC(C)=O)C2OC(C)=O)c(N=CC=Nc2c(NC3OC(COC(C)=O)C(OC(C)=O)C(OC(C)=O)C3OC(C)=O)nc(OC)[nH]c2=O)c(=O)[nH]1` (stereo unspecified): the TGI in experiment [1], in experiment [2], in experiment [3], in experiment [6], in experiment [4] and in [5] was more than 100 µM each time.

Turning to `O=C(O)/C=C/c1ccc(O)c(O)c1`, the TGI in experiment [1], in experiment [2], in [3], in experiment [9], in experiment [6] and in experiment [4] was more than 100 µM throughout. Also, the TGI in experiment [5] was more than 100 µM.

`CC(C)(CN1CCCCC1)C(=O)/C=C/c1ccccc1`: the TGI is 52.7 µM in [1]; 26.8 µM in [2]; 49.5 µM in experiment [3]; 35.1 µM in experiment [6]; 30.5 µM in experiment [4]; 39.6 µM in experiment [5].

Consider `O=C(CCc1n[nH]c(=S)o1)Nc1cc(Cl)ccc1Cl`, for which the TGI in experiment [1], in experiment [3], in [6], in [4] and in experiment [5] was more than 100 µM each time.

For `CC1(OCc2ccccc2)C(=O)N2C1NCC2(C)C` (stereo unspecified), the TGI in experiment [1], in [3], in [6], in experiment [4] and in experiment [5] was more than 100 µM in each case.

Consider `C/C(CN1C(=O)c2ccccc2C1=O)=N\NS(=O)(=O)c1ccc2ccccc2c1`, for which the TGI in experiment [1], in [2], in [3], in [6], in experiment [4] and in experiment [5] was more than 100 µM throughout.

Take `O=C(/C=C/c1ccccc1)NC1C=Nc2ccc([N+](=O)[O-])cc2NC1=O` (stereo unspecified): the TGI in [1], in experiment [2], in [3], in experiment [6], in experiment [4] and in experiment [5] was more than 100 µM each time.

As for `NS(=O)(=O)c1ccc(N(/C=C/C(=O)C(F)(F)F)CC(=O)c2ccc(F)cc2)cc1`, the GI50 in [1] is 44.2 µM; in [7], 19.3 µM; in experiment [8], more than 100 µM; in experiment [2], 26.1 µM; in [3], 42.3 µM; in experiment [9] it was 22.7 µM. The GI50 in experiment [6] is 26.4 µM; in [4], 25.9 µM; in experiment [5], 31.9 µM. The TGI in experiment [1] was more than 100 µM; in experiment [7], 43.3 µM; in experiment [8] it was more than 100 µM; in experiment [2], 51.5 µM; in experiment [3] it was more than 100 µM; in experiment [9], 81.2 µM. The TGI in [6] is 85.7 µM; in [4], more than 100 µM; in experiment [5], more than 100 µM.

Regarding `O=C1C=C(Nc2ccccc2)c2ccccc2C1=O`, the GI50 in [1] is 1.84 µM; in [7] it was 1.73 µM; in [10] it was 2.57 µM; in experiment [8], 1.88 µM; in experiment [2], 1.67 µM; in experiment [3], 2.71 µM. Also, the GI50 in experiment [6] is 1.9 µM; in experiment [4] it was 2.86 µM; in experiment [5] it was 1.71 µM. Further, the TGI in experiment [1] came out at 4.06 µM; in experiment [7] it was 3.16 µM; in [10] it was 6.32 µM; in experiment [8], 4.3 µM; in experiment [2], 3.36 µM; in [3] it was 12.8 µM. Besides, the figures for the TGI in experiment [6], in [4] and in experiment [5] were 3.5 µM, 7.75 µM and 4.48 µM, respectively.

In the case of `COC(=O)C(=O)C(C#N)c1nc2ccccc2s1` (stereo unspecified), the TGI in [1], in experiment [2], in experiment [3], in experiment [6], in [4] and in experiment [5] was more than 100 µM throughout.

Turning to `Cc1cc(N(CCC#N)CCC#N)ccc1/C=C(\NC(=O)/C=C/c1ccccc1)C(=O)N=[N+]=[N-]`, the TGI in experiment [1], in experiment [2], in experiment [3], in experiment [6], in experiment [4] and in experiment [5] was more than 100 µM each time.

Turning to `CC(C)=CCC/C(C)=C/CC/C(C)=C/CSC[C@H](NC(=O)CCCCCN1CCN(C)CC1)C(=O)NC1CCCCCC1`, the GI50 in experiment [1] was 2.5 µM; in [10], 1.95 µM; in [8] it was 2.12 µM; in [3] it was 3.33 µM; in [9], 1.89 µM; in experiment [6], 1.75 µM. Moreover, the results for the GI50 in [4] and in experiment [5] were 4.4 µM and 1.58 µM, respectively. Also, the TGI was 7.4 µM in [1]; 4.53 µM in experiment [10]; 4.79 µM in experiment [8]; 12.2 µM in [3]; 4.31 µM in experiment [9]; 3.38 µM in experiment [6]. Moreover, the values for the TGI in experiment [4] and in experiment [5] were 9.11 µM and 3.22 µM, respectively.

Turning to `CC(=O)C1(O)CC2(c3ccccc3)C(=O)C1(c1ccccc1)C(c1ccccc1)=C2c1ccccc1` (stereo unspecified), the TGI in experiment [1], in [2], in experiment [3], in experiment [6], in experiment [4] and in experiment [5] was more than 100 µM throughout.

Take `C/C(=N/NC(=O)c1ccccc1S(N)(=O)=O)C(CN1CCCCC1)C(C1=C(O)C2C=CC=CC2OC1=O)c1ccccc1` (stereo unspecified): the TGI in experiment [1], in experiment [2], in experiment [3], in experiment [6], in [4] and in [5] was more than 100 µM each time.

`COc1cccc2c1nc(C(F)F)n2-c1nc(-c2ccc(NS(=O)(=O)CCN(C)C)cc2)nc(N2CCOCC2)n1`: the GI50 in experiment [1] was 0.174 µM; in experiment [7] it was 0.314 µM; in experiment [10], 0.0664 µM; in experiment [2], 0.081 µM; in [3] it was 0.295 µM; in experiment [9], 0.0923 µM. The values for the GI50 in experiment [6], in experiment [4] and in [5] were 0.0875 µM, 0.0597 µM and 0.0659 µM, respectively. Besides, the TGI was 4.33 µM in experiment [1]; 16 µM in experiment [7]; 0.5 µM in experiment [10]; 1.26 µM in experiment [2]; more than 41.1 µM in experiment [3]; 12.9 µM in [9]. The values for the TGI in [6], in experiment [4] and in [5] were 1.44 µM, 0.615 µM and 1.1 µM, respectively.

For the molecule `COc1ccc2c(c1)[C@@H](NC(C)=O)CCc1cc(OC)c(OC)c(OC)c1-2`, the TGI was more than 100 µM in experiment [1]; more than 100 µM in experiment [10]; more than 100 µM in experiment [8]; 1.27 µM in experiment [3]; more than 4.75 µM in [9]; less than 0.215 µM in experiment [6]. Moreover, the TGI in [4] and in experiment [5] was more than 100 µM each time.

In the case of `Cc1ccc(S(=O)c2ccccc2[N+](=O)[O-])cc1` (stereo unspecified), the TGI in experiment [1], in experiment [2], in experiment [3], in [6], in experiment [4] and in experiment [5] was more than 100 µM throughout.

Take `CC(=O)N1C/C(=C\c2ccccc2)C(=O)/C(=C/c2ccccc2)C1`: the TGI in experiment [1] came to 55.1 µM; in [2], 27.9 µM; in experiment [3], 24.4 µM; in experiment [6] it was 26.9 µM; in [4] it was 34.8 µM; in experiment [5] it was 34.4 µM.

On to `N#CC(C(=O)CCCC(=O)Nc1ccccc1[N+](=O)[O-])c1c(Cl)cccc1Cl` (stereo unspecified), for which the TGI in [1], in [2], in experiment [3], in experiment [6], in experiment [4] and in [5] was more than 100 µM throughout.

Take `N/N=c1/nc2n(c3ncccc13)C=CNN2`: the TGI in experiment [1], in experiment [2], in experiment [3], in experiment [6] and in experiment [4] was more than 100 µM in each case.

On to `C[C@@H]1C(=O)CC2C(C)(C)CCC[C@]2(C)[C@@]12CC[C@]1(C=COC1)O2` (stereo partly specified), for which the TGI in experiment [1] is more than 100 µM; in experiment [2] it was 50 µM; in experiment [3], more than 100 µM; in experiment [6] it was more than 100 µM; in [5], more than 100 µM.

In the case of `CN(C)CC1CC/C(=C\c2ccc(Cl)c(Cl)c2)C1=O` (stereo unspecified), the TGI in experiment [1] is more than 100 µM; in [2], 17.7 µM; in [3], more than 58.9 µM; in experiment [6], more than 78.4 µM; in experiment [4] it was 19.9 µM; in experiment [5], more than 55.9 µM.

Turning to `NC(N)NCCCc1cn2c(n1)C1CCCN1C(=O)C2Cc1ccccc1` (stereo unspecified), the TGI in experiment [1], in experiment [2], in [3], in experiment [6], in [4] and in experiment [5] was more than 100 µM in each case.

As for `O=C([CH-]C(=O)c1ccccc1)c1ccccc1.O=C([CH-]C(=O)c1ccccc1)c1ccccc1.O=C([CH-]C(=O)c1ccccc1)c1ccccc1.[Ga+3]`, the GI50 is 39.6 µM in experiment [1]; 19.3 µM in experiment [2]; more than 100 µM in experiment [3]; 38.7 µM in experiment [6]; more than 100 µM in experiment [4]; 30.2 µM in experiment [5]. Moreover, the TGI is more than 100 µM in [1]; 68.6 µM in experiment [2]; more than 100 µM in experiment [3]; more than 100 µM in experiment [6]; more than 100 µM in experiment [4]; more than 100 µM in experiment [5].

For the molecule `Cc1c(C(Cc2ccccc2N(C)C(=O)/C=C\C(=O)O)c2c[nH]c3ccccc23)c2ccccc2n1C` (stereo unspecified), the TGI in experiment [1] worked out at 31.8 µM; in experiment [2], 28.6 µM; in experiment [3], 29.4 µM; in experiment [6], 28.8 µM; in experiment [4] it was 33.8 µM; in experiment [5], 27.7 µM.

`O=c1nc2n(-c3cccc(Cl)c3)c3ccc([N+](=O)[O-])cc3cc-2c(=O)[nH]1`: the GI50 was 12.7 µM in [1]; 4.2 µM in experiment [7]; 7.37 µM in experiment [2]; 17 µM in experiment [3]; 6.01 µM in experiment [9]; 4.92 µM in experiment [6]. In addition, the results for the GI50 in experiment [4] and in [5] were 7.27 µM and 5.87 µM, respectively. The TGI is more than 25 µM in experiment [1]; 11.8 µM in experiment [7]; 21.6 µM in experiment [2]; more than 25 µM in experiment [3]; 15.3 µM in experiment [9]; 10.9 µM in experiment [6]. Also, the TGI came to 13.9 µM in experiment [4] and 13 µM in experiment [5].
